From publication PMC7700423, “Differential Effects of 1α,25-Dihydroxyvitamin D3 on the Expressions and Functions of Hepatic CYP and UGT Enzymes and Its Pharmacokinetic Consequences In Vivo” (Pharmaceutics, 2020)

Assays:
[1] = test system: hepatic Cyp2c11 protein; assay: Hepatic protein expression by Western blotting; type: in vivo, rat; settings: 2.56 nmol/kg/day i.p. for 4 days, n = 5, p = 0.0001
Experimental: (§1) (Seoul, Korea). […] On the fifth day, rats were used for pharmacokinetic study. For protein extraction, the rat liver tissues were homogenized in RIPA buffer (#89900, ThermoFisher Scientific, Waltham, MA, USA) with protease/phosphatase inhibitors using a Diax 900 homogenizer. The homogenized liver samples were incubated in ice for 30 min (for complete lysis) with vortexing every 5 min, and then centrifuged at 14,000× g for 30 min. The supernatants were collected and diluted by 10 times. The protein levels were quantified using the BCA Protein Assay Kit (#23227, ThermoFisher Scientific, Waltham, MA, USA) with bovine serum albumin (BSA) standards. Total protein lysates were subjected to Western blot analysis. Lysates were mixed with 2X Laemmli buffer (Bio-Rad) supplemented with β-mercaptoethanol (Bio-Rad) and boiled for 5 min. […] Immunoblotting was performed with the following antibodies: rabbit CYP2C11 antibody (#ab3571, Abcam, Cambridge, UK), rabbit UGT1A6 antibody (#ab157476, Abcam, Cambridge, UK) and mouse CYP2B1/B2 antibody (#sc-53244, Santa Cruz Biotechnology, Dallas, TX, USA) and HRP-conjugated β-actin mouse antibody (Sigma; cat#A3854; 1:10,000). The following secondary antibodies were used: HRP-conjugated goat antibody to mouse IgG (Genetex; cat# GTX-213111-01, 1:5000), HRP-conjugated goat antibody to rabbit IgG (Genetex; cat# GTX-213110-01; 1:5000). Then, the bands were visualized via chemiluminescence (#34577, ThermoFisher Scientific, Waltham, MA, USA). Densitometric analysis of the bands was performed using ImageJ software (NIH; rsb.info.nih.gov/ij).

[2] = test system: hepatic Cyp2b2 protein; assay: Hepatic protein expression by Western blotting; type: in vivo, rat; settings: 2.56 nmol/kg/day i.p. for 4 days, n = 5, p = 0.1728
Experimental: as §1

[3] = test system: hepatic Cyp2b1 protein; assay: Hepatic protein expression by Western blotting; type: in vivo, rat; settings: 2.56 nmol/kg/day i.p. for 4 days, n = 5, p = 0.0006
Experimental: as §1

[4] = Serum chemistry for liver function after 1,25(OH)2D3 treatment; type: in vivo, rat; settings: fifth day after 2.56 nmol/kg/day i.p. for 4 days, n = 3
Experimental: Male Sprague-Dawley (SD) rats (8 weeks, 260–280 g) were purchased from Nara Biotech Co. (Seoul, Korea). Animals were maintained in cages under controlled conditions under a 12-h dark/light cycle with free access to food and tap water, acclimated for at least five days in the laboratory before experiments, and allocated to a control group or 1,25(OH)2D3-treated group. The 1,25(OH)2D3 dosing solution was prepared by diluting 1,25(OH)2D3 in ethanol with 5 mL of corn oil (2.56 nmol/mL of final concentration). The dosing solution for the control group was prepared but the 1,25(OH)2D3 was omitted. The dosing solutions were administered intraperitoneally to rats at a dose of 1 mL/kg/day (2.56 nmol/kg/day as 1,25(OH)2D3) over four consecutive days. On the fifth day, rats were used for pharmacokinetic study.
Rat serum was obtained from whole blood on the fifth day after the 1,25(OH)2D3 treatment. The assay of total protein, albumin, serum glutamic oxaloacetic transaminase (sGOT), and serum glutamic pyruvic transaminase (sGPT) was performed by Green Cross Reference Laboratory (Seoul, Korea).

[5] = test system: liver tissue; assay: Liver histology (H&E) after 1,25(OH)2D3 treatment; type: in vivo, rat; settings: H&E sections after four days of treatment
Experimental: (§2) Male Sprague-Dawley (SD) rats (8 weeks, 260–280 g) were purchased from Nara Biotech Co. (Seoul, Korea). […] The dosing solution for the control group was prepared but the 1,25(OH)2D3 was omitted. […] On the fifth day, rats were used for pharmacokinetic study.

[6] = test system: hepatic Ugt1a6 protein; assay: Hepatic protein expression by Western blotting; type: in vivo, rat; settings: 2.56 nmol/kg/day i.p. for 4 days, n = 5, p = 0.5192
Experimental: as §2

[7] = test system: hepatic Cyp2b1 mRNA; assay: Hepatic mRNA expression by qPCR; type: in vivo, rat; settings: 2.56 nmol/kg/day i.p. for 4 days, n = 4-5, p = 0.006
Experimental: as §2
(§3) Collected livers were frozen immediately with liquid nitrogen and stored at −80 °C. Trizol reagent in RNAiso Plus (Takara Bio, Inc., Shiga, Japan) was used to extract RNA from 100-mg tissue homogenates according to the manufacturer’s protocol. After purities and total RNA concentrations extracted from liver samples were determined at a wavelength of 260/280 nm with a Nanodrop 2000c spectrophotometer (Thermo Scientific, Waltham, MA, USA), synthesis of cDNA was processed from 1 μg of total RNA using the following conditions: incubation at 50 °C for 1 h, inactivation at 95 °C for 5 min, and cooling to 4 °C. The synthesized cDNA was then subjected to qPCR assays using SYBR® Premix Ex TagTM on Stratagene Mx3005P (Agilent Technologies, Boblingen, Germany) using the following conditions: 95 °C for 10 min and 40 cycles of 95 °C for 15 s and 55 °C for 30 s. A “Comparative Quantitation” mode was selected, and fold expressions were calculated using the delta-delta method 2^−(△△Ct). GAPDH was used as the internal reference gene for normalization. The forward and reverse primers used for qPCR analysis are listed in Supplementary Table S1 [2, 25, 28, 29].

[8] = test system: hepatic Ugt1a1 mRNA; assay: Hepatic mRNA expression by qPCR; type: in vivo, rat; settings: 2.56 nmol/kg/day i.p. for 4 days, n = 4-5
Experimental: as §2, §3

[9] = test system: hepatic Ugt1a8 mRNA; assay: Hepatic mRNA expression by qPCR; type: in vivo, rat; settings: 2.56 nmol/kg/day i.p. for 4 days, n = 4-5
Experimental: as §2, §3

[10] = test system: hepatic Cyp2d2 mRNA; assay: Hepatic mRNA expression by qPCR; type: in vivo, rat; settings: 2.56 nmol/kg/day i.p. for 4 days, n = 4-5
Experimental: as §2, §3

[11] = test system: hepatic Ugt2b3 mRNA; assay: Hepatic mRNA expression by qPCR; type: in vivo, rat; settings: 2.56 nmol/kg/day i.p. for 4 days, n = 4-5
Experimental: as §2, §3

[12] = test system: hepatic Cyp2c6 mRNA; assay: Hepatic mRNA expression by qPCR; type: in vivo, rat; settings: 2.56 nmol/kg/day i.p. for 4 days, n = 4-5
Experimental: as §2, §3

[13] = test system: hepatic Cyp2c11 mRNA; assay: Hepatic mRNA expression by qPCR; type: in vivo, rat; settings: 2.56 nmol/kg/day i.p. for 4 days, n = 4-5, p = 0.001
Experimental: as §2, §3

[14] = test system: hepatic Ugt1a6 mRNA; assay: Hepatic mRNA expression by qPCR; type: in vivo, rat; settings: 2.56 nmol/kg/day i.p. for 4 days, n = 4-5
Experimental: as §2, §3

[15] = test system: hepatic Ugt2b1 mRNA; assay: Hepatic mRNA expression by qPCR; type: in vivo, rat; settings: 2.56 nmol/kg/day i.p. for 4 days, n = 4-5
Experimental: as §2, §3

[16] = test system: hepatic Cyp1a2 mRNA; assay: Hepatic mRNA expression by qPCR; type: in vivo, rat; settings: 2.56 nmol/kg/day i.p. for 4 days, n = 4-5
Experimental: as §2, §3

[17] = test system: hepatic Ugt1a7 mRNA; assay: Hepatic mRNA expression by qPCR; type: in vivo, rat; settings: 2.56 nmol/kg/day i.p. for 4 days, n = 4-5
Experimental: as §2, §3

[18] = substrate: CC(NC(C)(C)C)C(=O)c1cccc(Cl)c1
[19] = substrate: CCCCNC(=O)NS(=O)(=O)c1ccc(C)cc1

## C=C1/C(=C\C=C2/CCC[C@]3(C)[C@@H]([C@H](C)CCCC(C)(C)O)CC[C@@H]23)C[C@@H](O)C[C@@H]1O [1,25(OH)2D3, 1α,25-dihydroxyvitamin D3]
[1]
  Hepatic Cyp2c11 protein level vs control rats: significantly lower
[2]
  Hepatic Cyp2b2 protein expression vs control rats: lower, but this difference is not significant
[3]
  Hepatic Cyp2b1 protein expression vs control rats: significantly decreased
[4]
  Albumin: 3.97 ± 0.15 g/dL
  Total protein: 5.73 ± 0.25 g/dL
  sGOT: 158 ± 35 IU/L
  sGPT: 22.7 ± 3.2 IU/L
[5]
  Damage to liver tissue (histology): no apparent evidence of damage to liver tissue
[6]
  Hepatic Ugt1a6 protein expression vs control rats: remained unchanged
[7]
  mRNA expression of hepatic Cyp2b1 vs control rats: significantly lower
[8]
  mRNA expression of hepatic Ugt1a1 vs control rats: no significant differences
[9]
  mRNA expression of hepatic Ugt1a8 vs control rats: no significant differences
[10]
  mRNA expression of hepatic Cyp2d2 vs control rats: no significant differences
[11]
  mRNA expression of hepatic Ugt2b3 vs control rats: no significant differences
[12]
  mRNA expression of hepatic Cyp2c6 vs control rats: no significant differences
[13]
  mRNA expression of hepatic Cyp2c11 vs control rats: significantly lower
[14]
  mRNA expression of hepatic Ugt1a6 vs control rats: significantly lower
[15]
  mRNA expression of hepatic Ugt2b1 vs control rats: no significant differences
[16]
  mRNA expression of hepatic Cyp1a2 vs control rats: no significant differences
[17]
  mRNA expression of hepatic Ugt1a7 vs control rats: no significant differences

B1: Cyp2b1 (Rattus norvegicus) (protein)
chain: MEPTILLLLALLVGFLLLLVRGHPKSRGNFPPGPRPLPLLGNLLQLDRGGLLNSFMQLREKYGDVFTVHLGPRPVVMLCGTDTIKEALVGQAEDFSGRGTIAVIEPIFKEYGVIFANGERWKALRRFSLATMRDFGMGKRSVEERIQEEAQCLVEELRKSQGAPLDPTFLFQCITANIICSIVFGERFDYTDRQFLRLLELFYRTFSLLSSFSSQVFEFFSGFLKYFPGAHRQISKNLQEILDYIGHIVEKHRATLDPSAPRDFIDTYLLRMEKEKSNHHTEFHHENLMISLLSLFFAGTETSSTTLRYGFLLMLKYPHVAEKVQKEIDQVIGSHRLPTLDDRSKMPYTDAVIHEIQRFSDLVPIGVPHRVTKDTMFRGYLLPKNTEVYPILSSALHDPQYFDHPDSFNPEHFLDANGALKKSEAFMPFSTGKRICLGEGIARNELFLFFTTILQNFSVSSHLAPKDIDLTPKESGIGKIPPTYQICFSAR
[18]
  Km: 171.70 ± 39.46 µM
  Vmax: 35.20 ± 6.62 pmol/min/mg protein

B2: Cyp2c11 (Rattus norvegicus) (protein)
chain: MDPVLVLVLTLSSLLLLSLWRQSFGRGKLPPGPTPLPIIGNTLQIYMKDIGQSIKKFSKVYGPIFTLYLGMKPFVVLHGYEAVKEALVDLGEEFSGRGSFPVSERVNKGLGVIFSNGMQWKEIRRFSIMTLRTFGMGKRTIEDRIQEEAQCLVEELRKSKGAPFDPTFILGCAPCNVICSIIFQNRFDYKDPTFLNLMHRFNENFRLFSSPWLQVCNTFPAIIDYFPGSHNQVLKNFFYIKNYVLEKVKEHQESLDKDNPRDFIDCFLNKMEQEKHNPQSEFTLESLVATVTDMFGAGTETTSTTLRYGLLLLLKHVDVTAKVQEEIERVIGRNRSPCMKDRSQMPYTDAVVHEIQRYIDLVPTNLPHLVTRDIKFRNYFIPKGTNVIVSLSSILHDDKEFPNPEKFDPGHFLDERGNFKKSDYFMPFSAGKRICAGEALARTELFLFFTTILQNFNLKSLVDVKDIDTTPAISGFGHLPPFYEACFIPVQRADSLSSHL
[19]
  Km: 232.83 ± 51.33 µM
  Vmax: 683.37 ± 94.05 pmol/min/mg protein
